In US20070248997A1, “METHOD OF USING ONE-D[…] MULTI-D[…] MAGNETIC RESONANCE TO IDENTIFY COMPOUNDS THAT INTERACT WITH TARGET BIOMOLECULES” (Smithkline Beecham Corporation, priority 1999, published 2007):

Target: Ni^2+ form of Peptide Deformylase (S. Aureus) (Staphylococcus aureus, UniProt P68826)
Test: Deformylation of For-Met-Ala-Ser-OH by Ni-PDF monitored by 1H NMR over incubation times
Type: biochemical
Conditions: for interaction constant α between I1 and I2: 0.4 mM 8-hydroxyquinoline (I1) + 0.15 mM N-Nitro-N′-(N-phenylamino)guanidine (I2); for interaction constant α between I1 and I2 / Ki: 2.5 mM substrate, 1 uM enzyme, assuming a KM of 2.5 mM, FIG. 4; for Ki: from slopes of formate buildup, read-out: KEI (constant of inhibition)
Experimental: FIG. 1 depicts the deformylation of For-Met-Ala-Ser-OH catalyzed by the Ni^2+ form of Peptide Deformylase (S. Aureus) (herein also referred to as “PDF”) over a range of incubation times, as monitored by 1H nuclear magnetic resonance spectroscopy.
FIG. 4 depicts the deformylation of For-Met-Ala-Ser-OH catalyzed by the Ni^2+ form of Peptide Deformylase (S.Aureus) over a range of incubation times, as monitored by 1H nuclear magnetic resonance spectroscopy of the buildup of the formate (For) moiety. Four slopes are illustrated in this figure, the first one (∘) is a “control” experiment using 2.5 mM of substrate (For-Met-Ala-Ser-OH) and 1 uM of enzyme. […] The third slope (∇) contains 0.15 mM of N-Nitro-N′-(N-phenylamino)guanidine (I2) in the presence of 2.5 mM of substrate and 1 uM of enzyme. Finally the fourth slope (⋄) contains both I1 and I2 at 0.4 mM and 0.15 mM, respectively, in the presence of 2.5 mM of substrate and 1 uM of enzyme. Calculating the four slopes and using the steady-state rate equations for this system, it is straightforward to calculate the KEI1, KEI2, and α value.

Chain of Ni^2+ form of Peptide Deformylase (S. Aureus) (P68826 whole entry): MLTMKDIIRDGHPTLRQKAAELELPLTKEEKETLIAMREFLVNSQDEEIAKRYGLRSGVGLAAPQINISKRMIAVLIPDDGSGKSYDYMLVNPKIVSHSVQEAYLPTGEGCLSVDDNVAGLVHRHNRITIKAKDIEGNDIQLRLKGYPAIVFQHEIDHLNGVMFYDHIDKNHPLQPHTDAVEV

| Compound | interaction constant α between I1 and I2 | Ki | deformylation of For-Met-Ala-Ser-OH (rate at which product resonance peak increases) (8-hydroxyquinoline added to substrate + Ni-PDF mixture, FIG. 1) |
| --- | --- | --- | --- |
| N=C(NNc1ccccc1)N[N+](=O)[O-] [N-Nitro-N′-(N-phenylamino)guanidine] | 0.72 | 151 µM | – |
| Oc1cccc2cccnc12 [8-hydroxyquinoline] | 0.72 | 335 µM | slightly inhibited |
